The source made the active and inactive calls.
Experiments:
cells [1] = assay: cells
[2] = HEp-2 cell cytotoxicity, dose response, cytotoxicity control for RSV inhibitor project, HTS (AID 2410); format: functional; conditions: human respiratory syncytial virus
[3] = molecular target: Inward rectifier potassium channel 2 (Mus musculus, UniProt P35561); assay: Manual electrophysiological patch clamp assay for SAR compounds that inhibit/block inward-rectifying potassium ion channel Kir2.1. [Related pubchem assays: 1843 (Summary assay for Kir2.1 inhibitor assays.), 1672 (Primary HTS of 305616 compounds where 2592 were identified as active.)]; format: functional
[4] = inhibitors of Bluetongue virus cytopathic effect, confirmation, arbovirus, BSR cells (AID 1250); format: functional;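 further: protection from viral cytopathic effect measured as cell viability by ATP luminescence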
[5] = molecular target: Luciferin 4-monooxygenase (Photinus pyralis, UniProt P08659); assay: Counter Screen for Luciferase-based Assay Positives. [Related pubchem assays: 620, 618, 411 ]
HT-1080 = assay: cytotoxicity in HT1080 fibrosarcoma cells, cell-based, fluorescence readout (AID 620); format: functional; conditions: Homo sapiens
[6] = luciferase reporter signal reduction – luminescence, H4-C neuroglioblastoma cells, dose response (AID 2458); format: functional, cell-based;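 further: H4 neuroglioblastoma cells stably carrying a luciferase reporter gene fusion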
[7] = HEK293 cell cytotoxicity, dose response, cytotoxicity control, plate reader, cherry-picked samples (AID 743446); format: functional, cell-based
[8] = inhibitors of firefly luciferase expression or activity, dose response, H4 neuroglioma cells, luminescence (AID 1990); format: functional, cell-based
[9] = LGR2 antagonists, dose response, cell-based, HEK293, CRE-luciferase reporter, cherry pick, set 2 (AID 743343); format: functional;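 further: transfected cells were stimulated with diluted bursicon conditioned medium after compound addition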
[10] = HepG2 cell cytotoxicity, dose response, cytotoxicity control, plate reader, cherry-pick, antagonist series (AID 743416); format: functional, cell-based
[11] = Luminescence-based counterscreen assay for KLF5 inhibitors: dose response cell-based high throughput screening assay to identify cytotoxic compounds using the IEC-6 intestinal epithelial cell line. [Related pubchem assays: 1700 (Primary screen.), 1834 (Confirmation screen.), 1858 (Summary AID.), 1905 (Counterscreen.)]; format: functional
cells [12] = format: functional, cell-based
[13] = molecular target: T1, Heat shock factor protein 1 (Mus musculus, UniProt P38532); assay: inhibition of MG132-induced HSE-luciferase signal, confirmation, cell-based, NIH3T3, luminescence, dose retest (AID 2382); format: functional;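 further: NIH3T3 fibroblasts with HSF1-driven luciferase reporter stressed by proteasome inhibitor MG132; luminescence from HSF1-driven luciferase expression after 8 hours of MG132 stress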
T1 sequence (P38532 whole entry): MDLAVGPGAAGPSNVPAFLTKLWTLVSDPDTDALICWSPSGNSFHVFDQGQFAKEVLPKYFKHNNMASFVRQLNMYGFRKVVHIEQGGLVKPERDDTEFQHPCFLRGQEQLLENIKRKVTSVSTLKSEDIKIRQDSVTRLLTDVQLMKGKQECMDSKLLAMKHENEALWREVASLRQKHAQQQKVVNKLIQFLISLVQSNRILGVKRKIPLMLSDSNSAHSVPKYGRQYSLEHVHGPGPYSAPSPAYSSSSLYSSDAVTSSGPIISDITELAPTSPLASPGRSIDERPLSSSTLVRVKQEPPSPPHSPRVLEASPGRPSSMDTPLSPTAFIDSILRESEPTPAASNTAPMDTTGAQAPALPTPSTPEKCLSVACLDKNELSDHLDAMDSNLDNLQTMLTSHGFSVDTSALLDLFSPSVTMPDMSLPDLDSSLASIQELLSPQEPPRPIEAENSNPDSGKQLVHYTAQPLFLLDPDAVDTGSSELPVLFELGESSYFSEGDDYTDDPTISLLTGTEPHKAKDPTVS

[14] = Luminescence Cell-Based Dose Response HTS to Identify Inhibitors of 5'UTR Stem-Loop Driven Prion Protein mRNA Translation in H4 Neuroglioblastoma Cells. [Related pubchem assays: 1827 (Project Summary), 1813 (Primary HTS)]; format: functional
[15] = inhibitors of SNCA 5'UTR-driven reporter translation, confirmation, H4 neuroglioma cells, luminescence (AID 1988); format: functional, cell-based
[16] = MC4R antagonists, dose response, counter-screen for LGR2 antagonist project, cell-based, plate reader, cherry pick (AID 743444); format: functional;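 further: transfected HEK 293 cells stimulated with alpha-MSH peptide; potency of inhibitors of the alpha-MSH evoked signal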
[17] = inhibitors of SNCA 5'UTR-driven translation, confirmation, luminescence, H4 neuroglioblastoma cells, dose confirmation (AID 2454); format: functional, cell-based;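 further: H4 neuroglioblastoma cells carrying an alpha-synuclein 5'UTR luciferase reporter; potency for inhibition of the luciferase signal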

Chain of Luciferin 4-monooxygenase (P08659 whole entry): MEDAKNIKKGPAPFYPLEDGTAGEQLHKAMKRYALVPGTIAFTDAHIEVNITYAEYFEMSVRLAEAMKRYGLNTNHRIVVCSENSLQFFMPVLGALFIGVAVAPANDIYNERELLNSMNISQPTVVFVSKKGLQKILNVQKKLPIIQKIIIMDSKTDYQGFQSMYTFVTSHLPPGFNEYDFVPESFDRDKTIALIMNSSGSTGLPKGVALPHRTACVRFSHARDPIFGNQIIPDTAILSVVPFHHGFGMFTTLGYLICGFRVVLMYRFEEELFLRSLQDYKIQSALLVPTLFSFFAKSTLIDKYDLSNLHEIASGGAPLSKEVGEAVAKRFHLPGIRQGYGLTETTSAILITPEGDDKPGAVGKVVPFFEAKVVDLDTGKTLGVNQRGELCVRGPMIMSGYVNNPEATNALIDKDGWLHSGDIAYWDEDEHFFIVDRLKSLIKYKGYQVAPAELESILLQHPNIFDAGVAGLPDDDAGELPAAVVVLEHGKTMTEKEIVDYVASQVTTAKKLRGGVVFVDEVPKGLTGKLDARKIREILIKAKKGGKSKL
Chain of Inward rectifier potassium channel 2 (P35561 whole entry): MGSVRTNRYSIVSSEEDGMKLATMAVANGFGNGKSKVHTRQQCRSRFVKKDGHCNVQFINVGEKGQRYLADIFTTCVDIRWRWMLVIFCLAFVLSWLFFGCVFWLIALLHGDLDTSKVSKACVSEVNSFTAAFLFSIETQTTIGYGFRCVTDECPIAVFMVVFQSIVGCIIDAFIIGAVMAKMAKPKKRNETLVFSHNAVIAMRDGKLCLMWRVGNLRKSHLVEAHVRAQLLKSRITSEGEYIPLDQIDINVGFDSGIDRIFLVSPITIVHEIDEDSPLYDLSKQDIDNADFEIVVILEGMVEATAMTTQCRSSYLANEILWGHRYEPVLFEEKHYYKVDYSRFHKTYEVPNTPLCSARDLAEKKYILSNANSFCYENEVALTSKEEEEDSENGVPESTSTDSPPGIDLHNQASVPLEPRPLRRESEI

For `CCOc1ccc(CNC(=O)c2cc3oc4ccccc4c3n2C)cc1`, the IC50 (cells [1]) was 4.82 µM (active) and the CC50 [2] was 39 µM (active).

With `COc1ccc(CNCc2ccc(Cl)cc2Cl)cc1` the IC50 [3] was 3.13 µM (active).

In the case of `O=C(CCn1c(=O)c2sccc2n(Cc2cc(=O)n3ccccc3n2)c1=O)NCc1ccco1`, the IC50 (cells [1]) is reported as 24.4 µM (active).

With `COc1ccc(-c2csc(Nc3ccc(C)cn3)n2)cc1OC` the IC50 [4] was 35.9 µM (active).

With `COCCn1c(C)cc(C2=NN=C(Nc3ccccc3)SC2)c1C` the EC50 [5] was 2.49 µM (active) and the EC50 (HT-1080) was > 50 µM (not active).

For `CCc1ccn2cc(-c3cc(-c4ccccc4)no3)nc2c1`, the EC50 [6] was 1.2 µM (active), the AC50 [7] was > 52 µM (inactive) and the EC50 [8] was 0.207 µM (active). For the same compound, the AC50 [9] was 0.805 µM (active), the AC50 [10] was 25.4 µM (active) and the IC50 [11] was > 39.8 µM (not active). The EC50 (cells [12]) was > 12 µM (inconclusive), the EC50 [13] was < 0.16 µM (active) and the EC50 [14] was < 0.1 µM (active). For the same compound, the EC50 [15] was 0.13 µM (active), the AC50 [16] was 0.701 µM (active) and the EC50 [17] was 1.12 µM (active).

For `O=C(Nc1nc(-c2ccco2)cs1)c1ccccc1`, the IC50 [4] was 30.7 µM (active).
